Experimental data reported in patent publication US20250092017A1, “2-PIPERIDYL OR 2-PYRAZOLYL SUBSTITUTED PYRIMIDINE COMPOUND SERVING AS EGFR INHIBITOR” (SUZHOU PUHE BIOPHARMA CO., LTD., priority 2022, published 2025).

What was measured:
Type in all cases: cell-based
[1] = tested on: Ba/F3-FL-EGFR-del19-C797S; experiment: CellTiter-Glo proliferation, Ba/F3-FL-EGFR-del19-C797S; conditions: 72 h, proliferation, 72 hours, CellTiter-Glo; read-out: Ba/F3-FL-EGFR-del19-C797S IC50/nM
Procedure: (§1) Promega CellTiter-Glo reagent was used to detect the effects of small molecule inhibitors on the proliferation of five Ba/F3 cell lines (Ba/F3-FL-EGFR, Ba/F3-FL-EGFR-L858R, Ba/F3-FL-EGFR-L858R-T790M-C797S, Ba/F3-TEL-EGFR-L858R-C797S and Ba/F3-FL-EGFR-del19-C797S).
(§2) The cell lines were cultured in an incubator at 37° C. and 5% CO2. Cells were passaged regularly and cells in the logarithmic phase were used for plating. 95 μL of cell suspension was added to each well of the cell plate, and culture medium without cells (containing 0.1% DMSO) was added to the Min control wells. Substance addition for compound detection cell plate: 5 μL of 20× compound working solution was added to the cell culture plate as shown in the table below. 50 μL of DMSO-cell culture medium mixture was added to the Max control, with the final DMSO concentration of 0.1%. 5 μL of DMSO-cell culture medium mixture was added to the Max control. The final DMSO concentration was 0.1%.
(§3) The compounds to be tested were added as per the table below
(§4) Cell viability was detected by CellTiter-Glo luminescence assay. Data analysis:
(§5) The cell proliferation inhibition rate (Inhibition Rate) data was processed using the following formula: […]
(§6) wherein: RLUDrug represents the relative luminescence unit of the cells with the addition of drug, RLUMin represents the luminescence unit of the culture medium, and RLUMax represents the relative luminescence unit of the cells with the addition of DMSO.
(§7) The inhibition rates corresponding to different concentrations of compounds were calculated in EXCEL, and then the inhibition rate curve was plotted using GraphPad Prism software and related parameters including the maximum and minimum inhibition rates of cells and IC50 values were calculated.

[2] = biological target: Ba/F3-FL-EGFR-L858R-T790M-C797S (Homo sapiens, UniProt P00533, T790M/C797S/L858R, cells depend on it); experiment: CellTiter-Glo proliferation, Ba/F3-FL-EGFR-L858R-T790M-C797S; conditions: 72 hours, read-out: Ba/F3-FL-EGFR-L858R-T790M-C797S IC50/nM
Procedure: as §1, §2, §3, §4, §5, §6, §7

[3] = biological target: T1, Ba/F3-TEL-EGFR-L858R-C797S (Homo sapiens, UniProt P00533, C797S/L858R, cells depend on it); experiment: CellTiter-Glo proliferation, Ba/F3-TEL-EGFR-L858R-C797S; conditions: 72 hours, read-out: Ba/F3-TEL-EGFR-L858R-C797S IC50/nM
T1 construct: fused on or other part: N-terminal TEL (ETV6) oligomerising part fused to the EGFR intracellular/kinase part; P41212 (Transcription factor ETV6)
Procedure: as §1, §2, §3, §4, §5, §6, §7

Ba/F3-FL-EGFR-L858R = Ba/F3-FL-EGFR-L858R (Homo sapiens, UniProt P00533, L858R, cells depend on it); experiment: CellTiter-Glo proliferation, Ba/F3-FL-EGFR-L858R; conditions: 72 hours, read-out: Ba/F3-FL-EGFR-L858R IC50/nM
Procedure: as §1, §2, §3, §4, §5, §6, §7

Ba/F3-FL-EGFR = biological target: T2, Ba/F3-FL-EGFR (Homo sapiens, UniProt P00533); experiment: CellTiter-Glo proliferation, Ba/F3-FL-EGFR; conditions: 72 hours, read-out: Ba/F3-FL-EGFR IC50/nM
T2 construct: FL read as full length
Procedure: as §1, §2, §3, §4, §5, §6, §7

Sequence of Ba/F3-FL-EGFR-L858R (P00533 whole entry L858R): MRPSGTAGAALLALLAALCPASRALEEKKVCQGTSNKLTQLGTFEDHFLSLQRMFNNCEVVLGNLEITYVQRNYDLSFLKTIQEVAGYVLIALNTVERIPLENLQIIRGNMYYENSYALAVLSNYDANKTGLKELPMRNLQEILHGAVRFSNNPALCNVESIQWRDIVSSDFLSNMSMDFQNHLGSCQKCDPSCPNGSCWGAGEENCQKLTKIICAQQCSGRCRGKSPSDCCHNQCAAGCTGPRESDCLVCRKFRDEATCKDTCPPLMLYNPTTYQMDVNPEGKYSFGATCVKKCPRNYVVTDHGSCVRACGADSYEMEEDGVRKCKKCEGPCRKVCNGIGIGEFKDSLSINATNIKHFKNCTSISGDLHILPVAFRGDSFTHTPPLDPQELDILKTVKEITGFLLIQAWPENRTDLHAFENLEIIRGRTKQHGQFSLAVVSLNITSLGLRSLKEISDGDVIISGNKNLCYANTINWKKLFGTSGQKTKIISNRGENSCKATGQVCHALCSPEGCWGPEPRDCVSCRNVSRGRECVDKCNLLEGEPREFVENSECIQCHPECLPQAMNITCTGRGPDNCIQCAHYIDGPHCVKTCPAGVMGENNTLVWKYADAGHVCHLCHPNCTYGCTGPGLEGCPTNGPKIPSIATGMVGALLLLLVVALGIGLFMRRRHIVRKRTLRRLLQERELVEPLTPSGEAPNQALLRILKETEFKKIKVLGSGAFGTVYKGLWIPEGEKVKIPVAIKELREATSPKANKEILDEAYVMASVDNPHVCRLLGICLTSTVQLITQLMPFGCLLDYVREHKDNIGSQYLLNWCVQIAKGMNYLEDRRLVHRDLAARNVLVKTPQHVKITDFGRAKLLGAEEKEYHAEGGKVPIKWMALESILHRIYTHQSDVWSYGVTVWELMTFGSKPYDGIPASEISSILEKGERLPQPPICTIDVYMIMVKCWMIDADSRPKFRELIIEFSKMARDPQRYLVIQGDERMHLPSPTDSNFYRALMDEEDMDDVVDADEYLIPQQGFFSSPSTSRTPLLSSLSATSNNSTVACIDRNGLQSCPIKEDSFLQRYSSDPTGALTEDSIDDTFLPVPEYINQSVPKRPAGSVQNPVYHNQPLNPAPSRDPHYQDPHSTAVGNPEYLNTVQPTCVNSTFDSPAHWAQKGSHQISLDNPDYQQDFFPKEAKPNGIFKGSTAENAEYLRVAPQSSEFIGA
Sequence of Ba/F3-FL-EGFR-L858R-T790M-C797S (P00533 whole entry T790M/C797S/L858R): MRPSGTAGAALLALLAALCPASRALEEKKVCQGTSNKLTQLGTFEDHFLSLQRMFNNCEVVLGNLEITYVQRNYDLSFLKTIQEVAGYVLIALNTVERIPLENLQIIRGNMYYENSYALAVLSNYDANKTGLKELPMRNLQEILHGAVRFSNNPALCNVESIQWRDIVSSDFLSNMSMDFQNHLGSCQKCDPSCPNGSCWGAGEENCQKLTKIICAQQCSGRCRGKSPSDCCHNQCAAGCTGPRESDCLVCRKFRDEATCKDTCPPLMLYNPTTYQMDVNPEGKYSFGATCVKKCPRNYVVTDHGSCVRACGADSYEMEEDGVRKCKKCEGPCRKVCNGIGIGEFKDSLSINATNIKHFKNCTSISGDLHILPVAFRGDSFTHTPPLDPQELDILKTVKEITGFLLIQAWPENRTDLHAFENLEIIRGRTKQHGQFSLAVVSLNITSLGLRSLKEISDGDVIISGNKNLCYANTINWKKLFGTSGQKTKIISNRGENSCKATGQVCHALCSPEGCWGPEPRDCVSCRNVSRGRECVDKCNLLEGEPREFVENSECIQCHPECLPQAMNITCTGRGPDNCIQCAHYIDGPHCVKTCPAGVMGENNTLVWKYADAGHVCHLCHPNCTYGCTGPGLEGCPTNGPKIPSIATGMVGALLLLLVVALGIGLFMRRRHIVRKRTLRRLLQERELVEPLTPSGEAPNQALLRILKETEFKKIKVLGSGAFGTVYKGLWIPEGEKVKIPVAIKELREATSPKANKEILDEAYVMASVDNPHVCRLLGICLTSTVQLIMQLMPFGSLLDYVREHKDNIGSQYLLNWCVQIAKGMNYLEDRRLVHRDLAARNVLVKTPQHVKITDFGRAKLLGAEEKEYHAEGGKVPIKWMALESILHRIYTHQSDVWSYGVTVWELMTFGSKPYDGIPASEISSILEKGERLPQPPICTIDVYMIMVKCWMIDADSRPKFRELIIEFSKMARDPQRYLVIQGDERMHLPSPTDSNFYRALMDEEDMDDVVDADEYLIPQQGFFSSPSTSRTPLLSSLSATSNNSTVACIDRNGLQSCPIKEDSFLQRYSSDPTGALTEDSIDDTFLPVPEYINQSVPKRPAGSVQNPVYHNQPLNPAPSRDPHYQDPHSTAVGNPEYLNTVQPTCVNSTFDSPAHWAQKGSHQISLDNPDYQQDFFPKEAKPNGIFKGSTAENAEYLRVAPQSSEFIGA
T1 sequence (P00533 whole entry C797S/L858R, the tested form may be a part): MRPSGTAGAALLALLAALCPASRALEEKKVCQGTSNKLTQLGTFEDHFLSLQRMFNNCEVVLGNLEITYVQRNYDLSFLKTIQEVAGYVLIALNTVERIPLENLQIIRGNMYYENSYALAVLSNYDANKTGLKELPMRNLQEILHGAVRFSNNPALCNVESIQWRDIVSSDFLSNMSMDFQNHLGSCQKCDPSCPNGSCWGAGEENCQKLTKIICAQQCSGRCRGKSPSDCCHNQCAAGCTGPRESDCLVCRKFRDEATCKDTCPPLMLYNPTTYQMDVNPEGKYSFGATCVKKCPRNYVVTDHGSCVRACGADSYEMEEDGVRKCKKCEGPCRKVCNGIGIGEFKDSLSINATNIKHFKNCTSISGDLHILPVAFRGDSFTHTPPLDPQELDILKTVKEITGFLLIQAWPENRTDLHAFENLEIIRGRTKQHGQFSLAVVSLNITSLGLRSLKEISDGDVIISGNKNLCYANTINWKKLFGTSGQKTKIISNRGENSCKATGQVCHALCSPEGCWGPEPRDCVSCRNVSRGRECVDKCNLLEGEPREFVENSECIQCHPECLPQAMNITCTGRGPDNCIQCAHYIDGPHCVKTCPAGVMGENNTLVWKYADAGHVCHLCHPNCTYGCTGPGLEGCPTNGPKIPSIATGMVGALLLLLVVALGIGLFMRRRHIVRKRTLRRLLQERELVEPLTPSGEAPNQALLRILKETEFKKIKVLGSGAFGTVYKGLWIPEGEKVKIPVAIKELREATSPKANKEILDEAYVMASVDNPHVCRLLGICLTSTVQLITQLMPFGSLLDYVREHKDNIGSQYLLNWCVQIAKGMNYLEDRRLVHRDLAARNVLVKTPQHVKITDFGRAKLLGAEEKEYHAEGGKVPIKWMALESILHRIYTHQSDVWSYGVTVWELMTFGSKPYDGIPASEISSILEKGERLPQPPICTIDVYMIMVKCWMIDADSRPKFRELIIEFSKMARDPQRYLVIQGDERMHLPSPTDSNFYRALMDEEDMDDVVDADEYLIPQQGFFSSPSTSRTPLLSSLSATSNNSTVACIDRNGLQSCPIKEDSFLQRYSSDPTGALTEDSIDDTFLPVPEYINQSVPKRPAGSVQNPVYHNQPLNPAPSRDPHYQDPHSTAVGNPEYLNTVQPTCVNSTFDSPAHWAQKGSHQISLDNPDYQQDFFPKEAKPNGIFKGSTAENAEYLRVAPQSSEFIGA
T2 sequence (P00533 whole entry, change not shown): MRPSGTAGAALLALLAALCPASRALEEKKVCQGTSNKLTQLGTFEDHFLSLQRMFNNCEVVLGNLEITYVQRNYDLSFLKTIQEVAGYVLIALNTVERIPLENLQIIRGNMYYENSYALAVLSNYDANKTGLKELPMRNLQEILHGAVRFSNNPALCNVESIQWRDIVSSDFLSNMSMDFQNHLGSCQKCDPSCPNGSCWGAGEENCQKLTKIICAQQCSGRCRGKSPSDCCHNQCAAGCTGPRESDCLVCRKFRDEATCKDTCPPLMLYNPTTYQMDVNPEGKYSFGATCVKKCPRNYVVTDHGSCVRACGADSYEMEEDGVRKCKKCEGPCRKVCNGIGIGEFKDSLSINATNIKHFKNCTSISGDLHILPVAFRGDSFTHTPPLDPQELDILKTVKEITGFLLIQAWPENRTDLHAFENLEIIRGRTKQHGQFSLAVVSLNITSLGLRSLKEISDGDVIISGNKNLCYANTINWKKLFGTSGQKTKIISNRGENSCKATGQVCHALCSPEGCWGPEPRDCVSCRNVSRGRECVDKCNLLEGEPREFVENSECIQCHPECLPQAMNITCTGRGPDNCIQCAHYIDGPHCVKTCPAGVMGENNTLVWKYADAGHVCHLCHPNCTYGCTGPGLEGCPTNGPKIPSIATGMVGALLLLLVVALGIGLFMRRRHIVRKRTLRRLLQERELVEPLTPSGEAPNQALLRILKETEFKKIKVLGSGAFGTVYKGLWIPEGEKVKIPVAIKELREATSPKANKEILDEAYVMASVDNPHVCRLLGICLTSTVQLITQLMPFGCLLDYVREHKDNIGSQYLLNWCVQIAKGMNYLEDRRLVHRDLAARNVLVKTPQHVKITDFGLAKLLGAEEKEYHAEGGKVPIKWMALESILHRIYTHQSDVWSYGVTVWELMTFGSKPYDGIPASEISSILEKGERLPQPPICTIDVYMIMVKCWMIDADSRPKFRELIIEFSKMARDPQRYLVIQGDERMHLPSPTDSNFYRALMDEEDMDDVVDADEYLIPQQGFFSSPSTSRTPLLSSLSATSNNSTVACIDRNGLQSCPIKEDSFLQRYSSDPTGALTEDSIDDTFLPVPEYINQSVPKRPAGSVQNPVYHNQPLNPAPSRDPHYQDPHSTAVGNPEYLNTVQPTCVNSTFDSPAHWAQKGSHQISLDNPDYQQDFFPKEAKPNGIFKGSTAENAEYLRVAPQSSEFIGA

| SMILES | IC50 [1] | GI50 [2] | GI50 [3] | GI50 (Ba/F3-FL-EGFR-L858R) | GI50 (Ba/F3-FL-EGFR) |
| --- | --- | --- | --- | --- | --- |
| COC1CCN(c2nccc(Nc3cc4c(C(C)C)ccc(N5CC(NS(=O)(=O)C6COC6)C5)c4cn3)n2)CC1F (stereo not drawn) [Compound P37] | 339 nM | 34 nM | 33 nM | 83 nM | 1140 nM |
| CC(C)c1ccc(N2CC(CS(C)(=O)=O)C2)c2cnc(Nc3ccnc(-c4cnn(S(=O)(=O)C5COC5)c4)n3)cc12 [Compound H17] | 58 nM | 127 nM | 33 nM | 56 nM | 858 nM |
| CC(C)c1ccc(N2CC(CS(C)(=O)=O)C2)c2cnc(Nc3ccnc(-c4cnn(S(=O)(=O)CC5CC5)c4)n3)cc12 [Compound H14] | 34 nM | 136 nM | 28 nM | 71 nM | 721 nM |
| CCCS(=O)(=O)N[C@H]1CN(c2ccc(C(C)C)c3cc(Nc4ccnc(N5CCC(OC)C(F)C5)n4)ncc23)[C@@H]1C (stereo partly drawn) [Compound P32] | 123 nM | 8.9 nM | 16 nM | 22 nM | 565 nM |
| CC(C)c1ccc(N2CC(N(C)S(C)(=O)=O)C2)c2cnc(Nc3ccnc(-c4cnn(S(=O)(=O)C5CC5)c4)n3)cc12 [Compound H25] | 11 nM | 26 nM | 9.6 nM | 14 nM | 208 nM |
| CCS(=O)(=O)N(C)[C@H]1CN(c2ccc(C(C)C)c3cc(Nc4ccnc(N5CCC(OC)C(F)C5)n4)ncc23)[C@@H]1C (stereo partly drawn) [Compound P43] | 142 nM | 5.6 nM | 9.8 nM | 36 nM | 593 nM |
| CO[C@H]1CCN(c2nccc(Nc3cc4c(C(C)C)ccc(N5C[C@H](N(C)S(C)(=O)=O)[C@H]5C)c4cn3)n2)C[C@H]1F [Compound P40b] | 81 nM | 4.8 nM | 5.9 nM | 25 nM | 465 nM |
| CC(C)c1ccc(N2C[C@H](CS(C)(=O)=O)[C@H]2C)c2cnc(Nc3ccnc(-c4cnn(S(=O)(=O)N(C)C)c4)n3)cc12 [Compound H28] | 48 nM | 68 nM | 23 nM | 50 nM | 595 nM |
| COC1CCN(c2nccc(Nc3cc4c(C(C)C)ccc(N5CC(N(C)S(=O)(=O)C(F)(F)F)C5)c4cn3)n2)CC1F (stereo not drawn) [Compound P50] | 3510 nM | 720 nM | 542 nM | 1890 nM | 6620 nM |
| CCS(=O)(=O)N[C@H]1CN(c2ccc(C(C)C)c3cc(Nc4ccnc(N5CCC(OC)C(F)C5)n4)ncc23)[C@@H]1C (stereo partly drawn) [Compound P44] | 110 nM | 6.7 nM | 10 nM | 21 nM | 775 nM |
| CC(C)c1ccc(N2CC(N3CCCS3(=O)=O)C2)c2cnc(Nc3ccnc(N4CCC(O)C(F)C4)n3)cc12 (stereo not drawn) [Compound P34] | 234 nM | 78 nM | 83 nM | 206 nM | 903 nM |
| CCn1cc(-c2nccc(Nc3cc4c(C(C)C)ccc(N5CC(CS(C)(=O)=O)C5)c4cn3)n2)cn1 [Compound H27] | 53 nM | 322 nM | 21 nM | 49 nM | > 10000 nM |
| CC(C)c1ccc(N2CC(CS(C)(=O)=O)C2)c2cnc(Nc3ccnc(-c4cnn(S(=O)(=O)C5CCOC5)c4)n3)cc12 (stereo not drawn) [Compound H24] | 20 nM | 94 nM | 12 nM | 42 nM | 458 nM |
| CC(C)c1ccc(N2CC(NS(=O)(=O)c3ccoc3)C2)c2cnc(Nc3ccnc(N4CCC(O)C(F)C4)n3)cc12 (stereo not drawn) [Compound P33] | 351 nM | 91 nM | 115 nM | 218 nM | 1500 nM |
| CC(C)c1ccc(N2CC(N(C)S(C)(=O)=O)C2)c2cnc(Nc3ccnc(N4CC[C@H](O)[C@H](F)C4)n3)cc12 [Compound P39b] | 60 nM | 14 nM | 16 nM | 24 nM | 760 nM |
